Laboratory results: patent US20260337209A1, “BORON-CAPPED CLATHROCHELATE AND MACROCYCLIC LIGANDS AND METAL COMPLEXES THEREOF” (UVic Industry Partnerships Inc., priority 2022, published 2026)
Structures can show the parent of a compound that is named as a salt. Blank lines part the entries; values can stand above or below the compound they belong to.

Experiments:
Type in all cases: physicochemical
solubility in solvents = conditions: for solubility in acetone: solvent acetone
[1] = TGA (thermogravimetric analysis); conditions: [4a]·i-PrOH·2 H2O
Protocol: Exemplary embodiments of the technology are illustrated by the following non-limiting Examples, in which the reactions were carried out under air or nitrogen as indicated using commercially available reagents as received unless otherwise specified. NMR spectra were recorded on Bruker AVANCE 300, 360 or 500 MHz instruments relative to residual solvent resonances (^1H, ^13C), an external reference (BF3·OEt2 for ^11B) or by indirect detection (^15N by HMBC, in ppm relative to NH3). Melting points were determined using an Omega Engineering Model 199 instrument and are uncorrected. Mass spectra were recorded on a Q-TOF II instrument by MicroMass using electrospray ionization. TGA were recorded between room temperature and 600° C. Elemental analysis for C, H and N were obtained by Canadian Microanalytical Services, Delta, B.C., Canada or Guelph Chemical Laboratories Ltd., Guelph, ON, Canada.

[2] = CV (cyclic voltammetry) in dry CH3CN; conditions: 0.1 M NBu^n4^+PF6^−
Protocol: Mauve powder. Yield: 92% (based on formula). Mp. dec. 315° C. ^1H NMR (300 MHz, dmso-d6, 298 K): δ 80.0 (1H relative int., v1/2=450 Hz), 77.9 (1H, v1/2=50 Hz), 53.1 (2H, v1/2=480 Hz), 46.8 (2H, v1/2=450 Hz), 39.4 (2H and 1H overlap, broad and sharp resonances), 21.8 and 19.5 (2H each, broad and overlapping), 13.0 (1H, v1/2=400 Hz), −2.0 (1H, v1/2=350 Hz), −4.2 (1H, v1/2=350 Hz), […] (2H, v1/2=450 Hz), −8.6 (1H, v1/2=40 Hz), −28.7 (1H, v1/2=50 Hz), −52.7 (1H, v1/2=450 Hz), −72.8 (v1/2=500 Hz). NMR (360 MHz, dmso-d6, 373 K): δ 18.49 (6H, br s, 4′- or 5′-pzH, v1/2=85 Hz), 17.00 (6H, br s, 3,5-pyH, v1/2=65 Hz), 7.88 (6H, br s, 4′- or 5′-pzH, v1/2=80 Hz), 4.18 (3H, br s, 4-pyH, v1/2=30 Hz), −4.25 (2H, br s, BH, v1/2=320 Hz). […] Fc/Fc^+); Co(NO3)2 under the same conditions: E1/2 (ox)=+1.8 V (vs. Fc/Fc^+). μeff=4.7 BM (Evans' method). A mononuclear 1:1 complex [9a]of cage [4a] with Co^2+ has been characterized by X-ray crystallography. A Co(OH2)3^2+ unit is bound up in the tris(pyrazolyl) cap.
A blue-green powder was obtained from reaction of Cu(NO3)2(H2O)2.5 with [4a] in a 1:1 ratio. The ^1H NMR spectrum of this product is very similar to that of [11c′], obtained as one product in the reaction of Cu(O3SCF3)2 with [4a] in 3:1 ratio. […]

solubility in benzene (solubility in solvents; solvent benzene): somewhat soluble
Compound: Tris(2,6-pyrazolyl-4-(4′-methoxybenzylthiolato)pyridino)diborate dipotassium salt [4t]

solubility in halocarbons (solubility in solvents; CH2Cl2 and CHCl3): slightly soluble
solubility in alcohols (solubility in solvents; MeOH, EtOH, i-PrOH): slightly soluble
solubility in pure water (solubility in solvents; pure water): very limited solubility
solubility in DMSO (solubility in solvents; solvent DMSO): very soluble
solubility in THF (solubility in solvents; solvent THF): moderately soluble
solubility in acetone (solubility in solvents): very soluble
solubility in acidic water (solubility in solvents; solvent acidic water): moderately soluble
solubility in ethyl acetate (solubility in solvents; solvent ethyl acetate): moderately soluble
onset of decomposition (TGA) [1]: > 450 °C
Compound: c1cc2nc(c1)-c1ccn(n1)B1n3ccc(n3)-c3cccc(n3)-c3ccn(n3)B(n3ccc-2n3)n2ccc(n2)-c2cccc(n2)-c2ccn1n2 [4a, Tris(2,6-pyrazolylpyridino)diborate dipotassium salt]

solubility in dmso-d6 (solubility in solvents; dmso-d6, mild heating): dissolved with mild heating in dmso-d6
solubility in acetone (solubility in solvents): would not dissolve in acetone
Compound: c1cc2cc(c1)-c1ncn(n1)B1n3cnc(n3)-c3cccc(c3)-c3ncn(n3)B(n3cnc-2n3)n2cnc(n2)-c2cccc(c2)-c2ncn1n2 [7a, tris(2,6-di(1′,2′,4′-triazol-3′ yl)benzene)diborate dipotassium salt]

Compound: O=[N+]([O-])[O-].O=[N+]([O-])[O-].[Co+2] [Co(NO3)2]
E1/2 (ox) ([2]; 250 mV s^−1): +1.8 V (vs. Fc/Fc^+)

solubility in diethyl ether (solubility in solvents; diethyl ether, relative to the corresponding cage [7′a]): notably less soluble
Compound: CC1(C)c2ccn(n2)Bn2ccc(n2)C(C)(C)c2ccn(n2)Bn2ccc1n2 [8′a, Bis(2,2-dipyrazolylpropane)diborate dipotassium salt]

Compound: O=[N+]([O-])[O-].O=[N+]([O-])[O-].[Cu+2] [Cu(NO3)2]
E1/2 (red) [2]: −0.8 V (vs. Fc/Fc^+)
